Laboratory results: ChEMBL document CHEMBL3727355, “Chemokine receptor activity regulator” (2014)

Target: T1, C-C chemokine receptor type 10 (Homo sapiens) (UniProt P46092)
T1 sequence (whole entry): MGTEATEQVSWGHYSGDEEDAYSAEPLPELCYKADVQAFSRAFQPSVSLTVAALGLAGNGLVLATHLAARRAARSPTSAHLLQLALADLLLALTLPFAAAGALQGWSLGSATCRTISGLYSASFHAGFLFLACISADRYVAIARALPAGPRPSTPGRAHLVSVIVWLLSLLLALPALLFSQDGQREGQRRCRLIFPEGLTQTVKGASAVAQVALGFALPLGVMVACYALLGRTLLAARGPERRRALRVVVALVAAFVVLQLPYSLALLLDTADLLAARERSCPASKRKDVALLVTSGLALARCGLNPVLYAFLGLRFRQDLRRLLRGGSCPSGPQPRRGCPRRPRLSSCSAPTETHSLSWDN
Assay: Antagonist activity against human CCR10 expressed in human KJMGER8 cells assessed as inhibition of human recombinant CTACK-induced increase in intracellular calcium level at 100 nmol/L pre-incubated for 30 mins before human recombinant CTACK stimulation for 5 mins by FLIPR assay
Assay type: functional, cell-based

inhibition [%] | Structure (SMILES)
> 100 | CCONS(=O)(=O)c1cnn2c(Nc3cc(Cl)ccc3Cl)c(C(=O)N3CCC(c4ccc(F)cc4)CC3)cnc12
94.2 | COCC(=O)NS(=O)(=O)c1cnn2c(Nc3ccc(F)cc3C)c(C(=O)N3CCC(c4ccccc4)CC3)cnc12
> 100 | COC(=O)NS(=O)(=O)c1cnn2c(Nc3cc(C)ccc3C)c(C(=O)N3CCC(c4ccccc4)CC3)cnc12
> 100 | CCC(=O)NS(=O)(=O)c1cnn2c(Nc3cc(C)ccc3Cl)c(C(=O)N3CCC4(CC3)OCc3ccccc34)cnc12
> 100 | CCC(=O)NS(=O)(=O)c1cnn2c(Nc3cc(C)ccc3F)c(C(=O)N3CCC4(CC3)OCc3ccccc34)cnc12
> 100 | CC(=O)NS(=O)(=O)c1cnn2c(Nc3cccc(Cl)c3Cl)c(C(=O)N3CCC(c4ccc(F)cc4)CC3)cnc12
58.8 | CNCC(=O)NS(=O)(=O)c1cnn2c(Nc3ccc(F)cc3C)c(C(=O)N3CCC(c4ccccc4)CC3)cnc12
> 100 | CCNC(=O)NS(=O)(=O)c1cnn2c(Nc3ccc(Cl)c(Cl)c3)c(C(=O)N3CCC(c4ccc(F)cc4)CC3)cnc12
> 100 | CC(=O)NS(=O)(=O)c1cnn2c(Nc3cc(Cl)ccc3F)c(C(=O)N3CCC(c4ccc(F)cc4)CC3)cnc12
90.7 | CCNC(=O)NS(=O)(=O)c1cnn2c(Nc3ccc(Cl)cc3Cl)c(C(=O)N3CCC(c4ccc(F)cc4)CC3)cnc12
> 100 | O=C(c1cnc2c(S(=O)(=O)Nc3ncccn3)cnn2c1Nc1cc(Cl)ccc1Cl)N1CCC(c2ccc(F)cc2)CC1
> 100 | CCC(=O)NS(=O)(=O)c1cnn2c(Nc3cc(Cl)ccc3Cl)c(C(=O)N3CCC(c4ccc(F)cc4)CC3)cnc12
> 100 | CCC(=O)NS(=O)(=O)c1cnn2c(Nc3cc(C)c(F)cc3Cl)c(C(=O)N3CCC(c4ccc(F)cc4)CC3)cnc12
> 100 | CCNC(=O)NS(=O)(=O)c1cnn2c(Nc3cc(C)c(F)cc3Cl)c(C(=O)N3CCC(c4ccc(F)cc4)CC3)cnc12
> 100 | Cc1ccc(F)c(Nc2c(C(=O)N3CCC4(CC3)OCc3ccccc34)cnc3c(S(=O)(=O)NC(=O)C4CC4)cnn23)c1
87.8 | CCNS(=O)(=O)c1cnn2c(Nc3cc(C)ccc3Cl)c(C(=O)N3CCC(c4ccc(F)cc4)CC3)cnc12
> 100 | Cc1ccc(F)c(Nc2c(C(=O)N3CCC(c4ccc(F)cc4)CC3)cnc3c(S(=O)(=O)NC(=O)NC4CC4)cnn23)c1

More lines, now with the values behind:

Structure (SMILES) | inhibition [%]
CCNC(=O)NS(=O)(=O)c1cnn2c(Nc3ccccc3Cl)c(C(=O)N3CCC(c4ccccc4)CC3)cnc12 | 92.4
Cc1ccc(Cl)c(Nc2c(C(=O)N3CCC4(CC3)OCc3ccccc34)cnc3c(S(=O)(=O)NC(=O)C4(C)COC4)cnn23)c1 | > 100
CCNS(=O)(=O)c1cnn2c(Nc3ccc(F)cc3C)c(C(=O)N3CCC(c4ccccc4)CC3)cnc12 | > 100
O=C(NS(=O)(=O)c1cnn2c(Nc3ccccc3Cl)c(C(=O)N3CCC(c4ccccc4)CC3)cnc12)C1CC1 | 98.9
CC1(C(=O)NS(=O)(=O)c2cnn3c(Nc4cc(Cl)ccc4Cl)c(C(=O)N4CCC(c5ccc(F)cc5)CC4)cnc23)COC1 | > 100
Cc1cc(F)ccc1Nc1c(C(=O)N2CCC(c3ccccc3)CC2)cnc2c(S(=O)(=O)NC(=O)N3CCOCC3)cnn12 | 85.9
O=C(NS(=O)(=O)c1cnn2c(Nc3ccccc3Cl)c(C(=O)N3CCC(c4ccc(F)cc4)CC3)cnc12)C1CC1 | 80.6
Cc1cc(Cl)ccc1Nc1c(C(=O)N2CCC3(CC2)OCc2ccccc23)cnc2c(S(=O)(=O)NC(=O)C3CC3)cnn12 | > 100
CCN(CC)S(=O)(=O)c1cnn2c(Nc3ccc(F)cc3C)c(C(=O)N3CCC(c4ccccc4)CC3)cnc12 | > 100
Cc1cc(F)ccc1Nc1c(C(=O)N2CCC(c3ccccc3)CC2)cnc2c(S(=O)(=O)NC(=O)CO)cnn12 | > 100
CCNC(=O)NS(=O)(=O)c1cnn2c(Nc3ccc(F)cc3C)c(C(=O)N3CCC(c4ccccc4)CC3)cnc12 | 72.6
CCC(=O)NS(=O)(=O)c1cnn2c(Nc3cc(C)ccc3F)c(C(=O)N3CCC(c4ccc(F)cc4)CC3)cnc12 | > 100
